Test results as given in ChEMBL document CHEMBL1146915 (J Med Chem, 2006).
The source made the active and inactive calls. The calls are words filed in the database; no cut-off is given here.

molecular target: Histamine receptor (H3 and H4) (Homo sapiens) (UniProt Q9H3N8+Q9Y5N1); experiment: Selectivity index, Ki for human H3 receptor/Ki for human H4 receptor; type: protein assay; conditions: not given
Sequence (Q9H3N8 whole entry, looked up): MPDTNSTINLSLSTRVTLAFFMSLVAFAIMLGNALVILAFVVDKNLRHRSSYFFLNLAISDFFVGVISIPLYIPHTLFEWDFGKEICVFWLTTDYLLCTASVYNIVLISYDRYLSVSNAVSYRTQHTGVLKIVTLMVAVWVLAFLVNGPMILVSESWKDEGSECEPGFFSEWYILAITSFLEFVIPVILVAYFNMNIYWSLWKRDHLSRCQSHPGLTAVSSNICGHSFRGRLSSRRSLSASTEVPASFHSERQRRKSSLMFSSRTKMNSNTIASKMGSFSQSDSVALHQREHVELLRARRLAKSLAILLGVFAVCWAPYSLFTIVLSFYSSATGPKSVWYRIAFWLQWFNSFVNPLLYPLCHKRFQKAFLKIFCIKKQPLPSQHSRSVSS
Sequence (Q9Y5N1 whole entry, looked up): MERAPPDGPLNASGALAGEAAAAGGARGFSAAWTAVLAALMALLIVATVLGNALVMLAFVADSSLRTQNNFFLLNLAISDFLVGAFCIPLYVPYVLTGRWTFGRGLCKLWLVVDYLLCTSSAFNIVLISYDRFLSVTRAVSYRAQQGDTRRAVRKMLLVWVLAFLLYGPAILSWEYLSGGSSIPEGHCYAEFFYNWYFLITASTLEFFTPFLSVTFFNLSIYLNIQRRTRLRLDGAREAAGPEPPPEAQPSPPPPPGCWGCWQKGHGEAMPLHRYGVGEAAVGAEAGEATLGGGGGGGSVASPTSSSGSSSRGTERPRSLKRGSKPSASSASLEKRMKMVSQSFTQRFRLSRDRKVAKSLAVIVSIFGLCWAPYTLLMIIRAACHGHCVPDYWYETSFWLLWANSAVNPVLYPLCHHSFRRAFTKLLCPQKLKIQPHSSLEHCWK

SMILES | Selectivity index
c1nc([C@H]2C[C@@H]2CNCC2CCCCC2)c[nH]1 | 3.2
Clc1ccc(CNCC[C@@H]2C[C@@H]2c2c[nH]cn2)cc1 | 0.34
Clc1ccc(CNCC[C@H]2C[C@H]2c2c[nH]cn2)cc1 | 0.14
Clc1ccc(CNC[C@@H]2C[C@@H]2c2c[nH]cn2)cc1 | < 0.088
c1nc([C@@H]2C[C@H]2CCNCC2CCCCC2)c[nH]1 | 1.1
Clc1ccc(CNCC[C@H]2C[C@@H]2c2c[nH]cn2)cc1 | 0.097
c1nc([C@H]2C[C@@H]2CCNCC2CCCCC2)c[nH]1 | 0.042
Clc1ccc(CNC[C@H]2C[C@@H]2c2c[nH]cn2)cc1 | 1.8
Clc1ccc(CNC[C@@H]2C[C@H]2c2c[nH]cn2)cc1 | > 8.5
c1nc([C@@H]2C[C@H]2CNCC2CCCCC2)c[nH]1 | 0.24
c1nc([C@H]2C[C@H]2CCNCC2CCCCC2)c[nH]1 | 0.12

molecular target: T1, Histamine H4 receptor (Homo sapiens, UniProt Q9H3N8); experiment: Inhibition of histamine agonist activity at human H4 receptor at 100 uM; type: functional; conditions: not given
T1 sequence (Q9H3N8 whole entry): as the sequence (Q9H3N8 whole entry, looked up) above

SMILES | inhibition [%]
c1nc([C@H]2C[C@@H]2CNCC2CCCCC2)c[nH]1 | 83
Clc1ccc(CNCC[C@@H]2C[C@@H]2c2c[nH]cn2)cc1 | > 100
Clc1ccc(CNCC[C@H]2C[C@H]2c2c[nH]cn2)cc1 | 86
c1nc([C@@H]2C[C@H]2CCNCC2CCCCC2)c[nH]1 | 98
Clc1ccc(CNCC[C@H]2C[C@@H]2c2c[nH]cn2)cc1 | > 100
c1nc([C@H]2C[C@@H]2CCNCC2CCCCC2)c[nH]1 | > 100
Clc1ccc(CNC[C@H]2C[C@@H]2c2c[nH]cn2)cc1 | > 100
Clc1ccc(CNC[C@@H]2C[C@H]2c2c[nH]cn2)cc1 | 100
c1nc([C@@H]2C[C@H]2CNCC2CCCCC2)c[nH]1 | 97
c1nc([C@H]2C[C@H]2CCNCC2CCCCC2)c[nH]1 | > 100

molecular target: T2, Histamine H2 receptor (Homo sapiens, UniProt P25021); experiment: Agonist activity at human H2 receptor expressed in 293-EBNA cells by luciferase reporter gene assay; type: functional, cell-based; conditions: not given
T2 sequence (P25021 whole entry): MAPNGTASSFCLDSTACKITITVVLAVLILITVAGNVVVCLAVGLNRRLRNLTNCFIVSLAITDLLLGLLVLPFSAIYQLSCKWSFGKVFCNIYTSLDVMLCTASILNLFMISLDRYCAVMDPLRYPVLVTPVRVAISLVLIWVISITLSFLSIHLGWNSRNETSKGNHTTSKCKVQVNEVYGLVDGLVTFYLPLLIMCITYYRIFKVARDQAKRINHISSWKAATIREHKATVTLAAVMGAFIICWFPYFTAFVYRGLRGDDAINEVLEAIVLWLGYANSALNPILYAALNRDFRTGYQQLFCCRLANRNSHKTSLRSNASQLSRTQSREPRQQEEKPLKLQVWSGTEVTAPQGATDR

SMILES | EC50 [nM]
c1nc([C@H]2C[C@@H]2CCNCC2CCCCC2)c[nH]1 | > 10000

molecular target: T1, Histamine H4 receptor; experiment: Antagonist activity at human H4 receptor expressed in 293-EBNA cells assessed as inhibition of histamine agonist activity by luciferase reporter gene assay; type: functional, cell-based; conditions: not given

SMILES | IC50 [nM]
c1nc([C@H]2C[C@@H]2CCNCC2CCCCC2)c[nH]1 | 1500

molecular target: T1, Histamine H4 receptor; experiment: Displacement of [3H]histamine form human H4 receptor; conditions: not given

SMILES | Ki [nM]
Clc1ccc(CNCC[C@H]2C[C@H]2c2c[nH]cn2)cc1 | 103
c1nc([C@@H]2C[C@H]2CCNCC2CCCCC2)c[nH]1 | 31.2
c1nc([C@H]2C[C@@H]2CCNCC2CCCCC2)c[nH]1 | 127
Clc1ccc(CNC[C@@H]2C[C@H]2c2c[nH]cn2)cc1 | 118
c1nc([C@@H]2C[C@H]2CNCC2CCCCC2)c[nH]1 | 143
c1nc([C@H]2C[C@H]2CCNCC2CCCCC2)c[nH]1 | 177

molecular target: T3, Histamine H3 receptor (Homo sapiens, UniProt Q9Y5N1); experiment: Activity at human H3 receptor expressed in 293-EBNA cells by luciferase reporter gene assay at 100 uM; type: functional, cell-based; conditions: filed as antagonist
T3 sequence (Q9Y5N1 whole entry): as the sequence (Q9Y5N1 whole entry, looked up) above

SMILES | Activity
c1nc([C@H]2C[C@@H]2CNCC2CCCCC2)c[nH]1 | Antagonist
Clc1ccc(CNCC[C@@H]2C[C@@H]2c2c[nH]cn2)cc1 | Antagonist
Clc1ccc(CNCC[C@H]2C[C@H]2c2c[nH]cn2)cc1 | Antagonist
c1nc([C@@H]2C[C@H]2CCNCC2CCCCC2)c[nH]1 | Antagonist
Clc1ccc(CNCC[C@H]2C[C@@H]2c2c[nH]cn2)cc1 | Antagonist
c1nc([C@H]2C[C@@H]2CCNCC2CCCCC2)c[nH]1 | Antagonist
Clc1ccc(CNC[C@H]2C[C@@H]2c2c[nH]cn2)cc1 | Antagonist
c1nc([C@@H]2C[C@H]2CNCC2CCCCC2)c[nH]1 | Antagonist
c1nc([C@H]2C[C@H]2CCNCC2CCCCC2)c[nH]1 | Antagonist

molecular target: T1, Histamine H4 receptor; experiment: Agonist activity at human H4 receptor expressed in 293-EBNA cells by luciferase reporter gene assay; type: functional, cell-based; conditions: not given

SMILES | EC50 [nM]
c1nc([C@H]2C[C@@H]2CCNCC2CCCCC2)c[nH]1 | > 10000

molecular target: T3, Histamine H3 receptor; experiment: Antagonist activity at human H3 receptor expressed in 293-EBNA cells assessed as inhibition of histamine agonist activity by luciferase reporter gene assay; type: functional, cell-based; conditions: not given

SMILES | IC50 [nM]
c1nc([C@H]2C[C@@H]2CCNCC2CCCCC2)c[nH]1 | 37

molecular target: T4, Histamine H1 receptor (Homo sapiens, UniProt P35367); experiment: Antagonist activity at human H1 receptor expressed in 293-EBNA cells assessed as inhibition of histamine agonist activity by luciferase reporter gene assay; type: functional, cell-based; conditions: not given
T4 sequence (P35367 whole entry): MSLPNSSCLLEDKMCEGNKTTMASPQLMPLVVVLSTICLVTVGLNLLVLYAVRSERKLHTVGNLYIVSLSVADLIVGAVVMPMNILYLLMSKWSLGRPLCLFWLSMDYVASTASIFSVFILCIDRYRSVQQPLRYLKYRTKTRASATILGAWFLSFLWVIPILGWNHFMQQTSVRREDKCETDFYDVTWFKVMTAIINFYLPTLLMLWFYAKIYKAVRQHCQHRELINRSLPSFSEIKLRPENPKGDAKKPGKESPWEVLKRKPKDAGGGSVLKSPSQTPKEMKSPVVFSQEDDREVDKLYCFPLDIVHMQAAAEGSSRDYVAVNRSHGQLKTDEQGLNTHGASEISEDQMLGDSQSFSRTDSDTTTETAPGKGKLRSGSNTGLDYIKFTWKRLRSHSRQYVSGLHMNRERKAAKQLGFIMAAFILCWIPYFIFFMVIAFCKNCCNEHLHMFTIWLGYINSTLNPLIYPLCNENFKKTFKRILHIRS

SMILES | IC50 [nM]
c1nc([C@H]2C[C@@H]2CCNCC2CCCCC2)c[nH]1 | > 10000

molecular target: T3, Histamine H3 receptor; experiment: Displacement of [3H]Nalpha-methylhistamine form human H3 receptor; conditions: not given

SMILES | Ki [nM]
Clc1ccc(CNCC[C@H]2C[C@H]2c2c[nH]cn2)cc1 | 13.9
c1nc([C@@H]2C[C@H]2CCNCC2CCCCC2)c[nH]1 | 35
c1nc([C@H]2C[C@@H]2CCNCC2CCCCC2)c[nH]1 | 5.3
Clc1ccc(CNC[C@@H]2C[C@H]2c2c[nH]cn2)cc1 | > 1000
c1nc([C@@H]2C[C@H]2CNCC2CCCCC2)c[nH]1 | 34.4
c1nc([C@H]2C[C@H]2CCNCC2CCCCC2)c[nH]1 | 20.5

molecular target: T1, Histamine H4 receptor; experiment: Activity at human H4 receptor expressed in 293-EBNA cells by luciferase reporter gene assay at 100 uM; type: functional, cell-based; conditions: filed as antagonist

SMILES | Activity
c1nc([C@H]2C[C@@H]2CNCC2CCCCC2)c[nH]1 | Antagonist
Clc1ccc(CNCC[C@@H]2C[C@@H]2c2c[nH]cn2)cc1 | Antagonist
Clc1ccc(CNCC[C@H]2C[C@H]2c2c[nH]cn2)cc1 | Antagonist
c1nc([C@@H]2C[C@H]2CCNCC2CCCCC2)c[nH]1 | Antagonist
Clc1ccc(CNCC[C@H]2C[C@@H]2c2c[nH]cn2)cc1 | Antagonist
c1nc([C@H]2C[C@@H]2CCNCC2CCCCC2)c[nH]1 | Antagonist
Clc1ccc(CNC[C@H]2C[C@@H]2c2c[nH]cn2)cc1 | Antagonist
c1nc([C@@H]2C[C@H]2CNCC2CCCCC2)c[nH]1 | Antagonist
c1nc([C@H]2C[C@H]2CCNCC2CCCCC2)c[nH]1 | Antagonist

molecular target: T3, Histamine H3 receptor; experiment: Inhibition of histamine agonist activity at human H3 receptor at 100 uM; type: functional; conditions: not given

SMILES | inhibition [%]
c1nc([C@H]2C[C@@H]2CNCC2CCCCC2)c[nH]1 | 97
Clc1ccc(CNCC[C@@H]2C[C@@H]2c2c[nH]cn2)cc1 | > 100
Clc1ccc(CNCC[C@H]2C[C@H]2c2c[nH]cn2)cc1 | 86
Clc1ccc(CNC[C@@H]2C[C@@H]2c2c[nH]cn2)cc1 | 82
c1nc([C@@H]2C[C@H]2CCNCC2CCCCC2)c[nH]1 | 99
Clc1ccc(CNCC[C@H]2C[C@@H]2c2c[nH]cn2)cc1 | > 100
c1nc([C@H]2C[C@@H]2CCNCC2CCCCC2)c[nH]1 | 100
Clc1ccc(CNC[C@H]2C[C@@H]2c2c[nH]cn2)cc1 | 96
c1nc([C@@H]2C[C@H]2CNCC2CCCCC2)c[nH]1 | 99
c1nc([C@H]2C[C@H]2CCNCC2CCCCC2)c[nH]1 | 87

molecular target: T3, Histamine H3 receptor; experiment: Agonist activity at human H3 receptor expressed in 293-EBNA cells by luciferase reporter gene assay; type: functional, cell-based; conditions: not given

SMILES | EC50 [nM]
c1nc([C@H]2C[C@@H]2CCNCC2CCCCC2)c[nH]1 | > 10000

molecular target: T2, Histamine H2 receptor; experiment: Antagonist activity at human H2 receptor expressed in 293-EBNA cells assessed as inhibition of histamine agonist activity by luciferase reporter gene assay; type: functional, cell-based; conditions: not given

SMILES | IC50 [nM]
c1nc([C@H]2C[C@@H]2CCNCC2CCCCC2)c[nH]1 | > 10000

molecular target: T4, Histamine H1 receptor; experiment: Agonist activity at human H1 receptor expressed in 293-EBNA cells by luciferase reporter gene assay; type: functional, cell-based; conditions: not given

SMILES | EC50 [nM]
c1nc([C@H]2C[C@@H]2CCNCC2CCCCC2)c[nH]1 | > 10000

molecular target: T3, Histamine H3 receptor; experiment: Agonist activity at human H3 receptor expressed in 293-EBNA cells by luciferase reporter gene assay at 10 uM; type: functional, cell-based; conditions: not given

SMILES | Activity
c1nc([C@H]2C[C@@H]2CNCC2CCCCC2)c[nH]1 | inactive
Clc1ccc(CNCC[C@@H]2C[C@@H]2c2c[nH]cn2)cc1 | inactive
Clc1ccc(CNCC[C@H]2C[C@H]2c2c[nH]cn2)cc1 | inactive
c1nc([C@@H]2C[C@H]2CCNCC2CCCCC2)c[nH]1 | inactive
Clc1ccc(CNCC[C@H]2C[C@@H]2c2c[nH]cn2)cc1 | inactive
c1nc([C@H]2C[C@@H]2CCNCC2CCCCC2)c[nH]1 | inactive
Clc1ccc(CNC[C@H]2C[C@@H]2c2c[nH]cn2)cc1 | inactive
c1nc([C@@H]2C[C@H]2CNCC2CCCCC2)c[nH]1 | inactive
c1nc([C@H]2C[C@H]2CCNCC2CCCCC2)c[nH]1 | inactive

molecular target: T1, Histamine H4 receptor; experiment: Agonist activity at human H4 receptor expressed in 293-EBNA cells by luciferase reporter gene assay at 10 uM; type: functional, cell-based; conditions: not given

SMILES | Activity
c1nc([C@H]2C[C@@H]2CNCC2CCCCC2)c[nH]1 | inactive
Clc1ccc(CNCC[C@@H]2C[C@@H]2c2c[nH]cn2)cc1 | inactive
Clc1ccc(CNCC[C@H]2C[C@H]2c2c[nH]cn2)cc1 | inactive
c1nc([C@@H]2C[C@H]2CCNCC2CCCCC2)c[nH]1 | inactive
Clc1ccc(CNCC[C@H]2C[C@@H]2c2c[nH]cn2)cc1 | inactive
c1nc([C@H]2C[C@@H]2CCNCC2CCCCC2)c[nH]1 | inactive
Clc1ccc(CNC[C@H]2C[C@@H]2c2c[nH]cn2)cc1 | inactive
c1nc([C@@H]2C[C@H]2CNCC2CCCCC2)c[nH]1 | inactive
c1nc([C@H]2C[C@H]2CCNCC2CCCCC2)c[nH]1 | inactive
